Data taken from PubChem BioAssay AID248 (DTP/NCI, 2004).
Where “and” joins values, the source holds several entries; their conditions need not be identical. Equal values may be shown once. Toxic doses and inconclusive results are not listed. Cut-off read from the data, not from the text of the source: active = T/C of 150% or more; inactive = T/C below 125%.

System: L1210 leukemia ip in BDF1 mice, survival T/C
Assay: NCI In Vivo Anticancer Drug Screen. Data for tumor model L1210 Leukemia (intraperitoneal) in B6D2F1 (BDF1) mice
Settings: endpoint: mean survival time, higher = longer survival
In short: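 Tumor was transplanted into mice, which were then dosed with test compound or vehicle alone. Survival was recorded for each group, and the treated figure was expressed relative to the control figure.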

[1] = dose: 100.0 mg/kg/injection, schedule: Q01DX001 (ip), vehicle: Klucel (hydroxypropylcellulose) (HPC)
[2] = dose: 200.0 mg/kg/injection, schedule: Q01DX001 (ip), vehicle: Klucel (hydroxypropylcellulose) (HPC)
[3] = dose: 400.0 mg/kg/injection, schedule: Q01DX001 (ip), vehicle: Klucel (hydroxypropylcellulose) (HPC)
[4] = dose: 100.0 mg/kg/injection, schedule: Q04DX002 (ip), vehicle: Klucel (hydroxypropylcellulose) (HPC)
[5] = dose: 200.0 mg/kg/injection, schedule: Q04DX002 (ip), vehicle: Klucel (hydroxypropylcellulose) (HPC)
[6] = dose: 400.0 mg/kg/injection, schedule: Q04DX002 (ip), vehicle: Klucel (hydroxypropylcellulose) (HPC)
[7] = dose: 100.0 mg/kg/injection, schedule: Q01DX001 (ip), vehicle: saline
[8] = dose: 200.0 mg/kg/injection, schedule: Q01DX001 (ip), vehicle: saline
[9] = dose: 100.0 mg/kg/injection, schedule: Q01DX009 (ip), vehicle: saline with Tween-80
[10] = dose: 200.0 mg/kg/injection, schedule: Q01DX009 (ip), vehicle: saline with Tween-80
[11] = dose: 100.0 mg/kg/injection, schedule: Q01DX009 (ip), vehicle: Klucel (hydroxypropylcellulose) (HPC)
[12] = dose: 200.0 mg/kg/injection, schedule: Q01DX009 (ip), vehicle: Klucel (hydroxypropylcellulose) (HPC)
[13] = dose: 400.0 mg/kg/injection, schedule: Q01DX009 (ip), vehicle: Klucel (hydroxypropylcellulose) (HPC)

Measured: T/C

c1ccc2c(c1)ccc1cc3c(ccc4ccccc43)cc12
inactive: dose: 25.0 mg/kg/injection, schedule: Q01DX001 (ip), vehicle: Klucel (hydroxypropylcellulose) (HPC) 106 % of control | dose: 50.0 mg/kg/injection, schedule: Q01DX001 (ip), vehicle: Klucel (hydroxypropylcellulose) (HPC) 109 % of control | [1] 108 % of control | [2] 108 % of control | [3] 109 % of control

O=C(c1ccccc1)C(c1ccccc1)(c1ccccc1)c1ccccc1
inactive: dose: 50.0 mg/kg/injection, schedule: Q01DX001 (ip), vehicle: carboxymethylcellulose (CMC) 90 % of control | dose: 100.0 mg/kg/injection, schedule: Q01DX001 (ip), vehicle: carboxymethylcellulose (CMC) 95 % of control | [4] 97 % of control | dose: 200.0 mg/kg/injection, schedule: Q01DX001 (ip), vehicle: carboxymethylcellulose (CMC) 108 % of control | [5] 94 % of control | dose: 400.0 mg/kg/injection, schedule: Q01DX001 (ip), vehicle: carboxymethylcellulose (CMC) 123 % of control | [6] 97 % of control

COc1ccc(OC)c(CBr)c1CBr
inactive: dose: 5.0 mg/kg/injection, schedule: Q01DX001 (ip), vehicle: saline 101 % of control | dose: 10.0 mg/kg/injection, schedule: Q01DX001 (ip), vehicle: saline 98 % of control | dose: 20.0 mg/kg/injection, schedule: Q01DX001 (ip), vehicle: saline 101 % of control | dose: 40.0 mg/kg/injection, schedule: Q01DX001 (ip), vehicle: saline 98 % of control | dose: 80.0 mg/kg/injection, schedule: Q01DX001 (ip), vehicle: saline 104 % of control

Nc1ccc(Cl)cc1C(=O)O
inactive: [1] 90 % of control | [2] 101 % of control | [3] 90 % of control

O=C1C=CC(=O)c2c1ccc1ccccc21
inactive: dose: 12.5 mg/kg/injection, schedule: Q04DX003 (ip), vehicle: saline 102 % of control | dose: 25.0 mg/kg/injection, schedule: Q04DX003 (ip), vehicle: saline 96 % of control | dose: 50.0 mg/kg/injection, schedule: Q04DX003 (ip), vehicle: saline 101 % of control

c1ccc(-c2cc3c(nn2)[nH]c2ccccc23)cc1
inactive: [4] 105 % of control | [5] 97 % of control | [6] 87 % of control

COc1cc2c(cc1OC)C(NC(C)C)CCCC2 (stereo unspecified)
inactive: [7] 98 % of control | [8] 95 % of control

c1cncc(C2SCCCS2)c1
inactive: dose: 100.0 mg/kg/injection, schedule: Q04DX002 (ip), vehicle: DMSO 87 % of control | dose: 200.0 mg/kg/injection, schedule: Q04DX002 (ip), vehicle: DMSO 87 % of control

COc1c(C)c(Br)c(OC)c2ccccc12
inactive: [9] 89 % of control | [10] 94 % of control | dose: 400.0 mg/kg/injection, schedule: Q01DX009 (ip), vehicle: saline with Tween-80 94 % of control

CCCCCCC(=O)OCc1ccc(-c2ccccc2)cc1
inactive: dose: 75.0 mg/kg/injection, schedule: Q01DX001 (ip), vehicle: saline 90 % of control | dose: 150.0 mg/kg/injection, schedule: Q01DX001 (ip), vehicle: saline 87 % of control | dose: 300.0 mg/kg/injection, schedule: Q01DX001 (ip), vehicle: saline 92 % of control

Cc1cccc(C[Si](C)C)c1
inactive: [7] 95 % of control and 104 % of control | [8] 124 % of control | dose: 400.0 mg/kg/injection, schedule: Q01DX001 (ip), vehicle: saline 93 % of control and 98 % of control

Cc1ccc(NC(=O)Oc2ccc(-c3ccccc3)cc2)cc1
inactive: [11] 107 % of control | [12] 100 % of control | [13] 92 % of control

Nc1c(I)cc(C(=O)O)c(O)c1I
inactive: dose: 50.0 mg/kg/injection, schedule: Q01DX009 (ip), vehicle: saline with Tween-80 97 % of control | [9] 94 % of control | dose: 100.0 mg/kg/injection, schedule: Q04DX003 (ip), vehicle: saline with Tween-80 94 % of control | [10] 94 % of control | dose: 200.0 mg/kg/injection, schedule: Q04DX003 (ip), vehicle: saline with Tween-80 98 % of control

O=C1C2CCCCC1C(N1CCCC1)CC2 (stereo unspecified)
inactive: dose: 100.0 mg/kg/injection, schedule: Q01DX009 (sc), vehicle: olive oil, sesame oil, peanut oil 98 % of control | dose: 100.0 mg/kg/injection, schedule: Q04DX003 (sc), vehicle: olive oil, sesame oil, peanut oil 96 % of control | dose: 200.0 mg/kg/injection, schedule: Q01DX009 (sc), vehicle: olive oil, sesame oil, peanut oil 104 % of control | dose: 200.0 mg/kg/injection, schedule: Q04DX003 (sc), vehicle: olive oil, sesame oil, peanut oil 100 % of control | dose: 400.0 mg/kg/injection, schedule: Q04DX003 (sc), vehicle: olive oil, sesame oil, peanut oil 111 % of control

CC(C)(C)c1ccc(SC(=O)Nc2cccc(Cl)c2Cl)cc1
inactive: [11] 96 % of control | [4] 92 % of control | [12] 103 % of control | [5] 92 % of control | [13] 100 % of control | [6] 95 % of control

CC1(C(=O)O)CC12c1ccccc1-c1ccccc12 (stereo unspecified)
inactive: dose: 100.0 mg/kg/injection, schedule: Q01DX001 (ip), vehicle: acetone 103 % of control | dose: 200.0 mg/kg/injection, schedule: Q01DX001 (ip), vehicle: acetone 92 % of control

C=Cn1cc[n+](Cc2ccccc2)c1C
inactive: dose: 10.0 mg/kg/injection, schedule: Q01DX009 (ip), vehicle: saline 101 % of control and 104 % of control | dose: 10.0 mg/kg/injection, schedule: Q04DX002 (ip), vehicle: saline 108 % of control and 90 % of control | dose: 20.0 mg/kg/injection, schedule: Q01DX009 (ip), vehicle: saline 105 % of control | dose: 20.0 mg/kg/injection, schedule: Q04DX002 (ip), vehicle: saline 94 % of control and 97 % of control | dose: 40.0 mg/kg/injection, schedule: Q01DX009 (ip), vehicle: saline 100 % of control and 116 % of control | dose: 40.0 mg/kg/injection, schedule: Q04DX002 (ip), vehicle: saline 97 % of control and 102 % of control
